In PMC9388863, “Congeners-Specific Intestinal Absorption Of Microcystins In An In Vitro 3D Human Intestinal Epithelium: The Role Of Influx/Efflux Transporters” (Frontiers in Toxicology, 2022):
*1 amine or outer side, *2 acyl side, *3 side chain or, on linkers, in order; H or OH if unused. Where a SMILES comes first, the peptide text is derived from it. Bridges are numbered along the chain shown (N, C = ends). [ ]: non-standard residue; d: D form. Adda = CO[C@@H](Cc1ccccc1)[C@@H](C)/C=C(C)/C=C/[C@H](N[*:1])[C@H](C)C(=O)[*:2]; dAsp(3S-Me) = C[C@H](C(=O)[*:3])[C@@H](N[*:1])C(=O)[*:2]; d(γGlu) = O=C(O)[C@@H](CCC(=O)[*:2])N[*:1]; NMeDha = C=C(NC)C(=O)O

Legend:
[1] = test system: EpiIntestinal™ tissues; assay type: in vitro ADME, human
[2] = test system: Caco-2 cell monolayers; details: cited from earlier work
[3] = test system: EpiIntestinal™ 3D human reconstructed intestinal epithelium; assay type: in vitro ADME
[4] = biological target: T1, MRP2 (Homo sapiens, UniProt Q92887); assay type: in vitro ADME
T1 construct: EpiIntestinal™ tissues express all the influx and efflux transporters that are considered relevant; host or cells: EpiIntestinal™ 3D reconstructed human small-intestinal epithelium (normal human primary cells, single donor)
T1 sequence (Q92887 whole entry): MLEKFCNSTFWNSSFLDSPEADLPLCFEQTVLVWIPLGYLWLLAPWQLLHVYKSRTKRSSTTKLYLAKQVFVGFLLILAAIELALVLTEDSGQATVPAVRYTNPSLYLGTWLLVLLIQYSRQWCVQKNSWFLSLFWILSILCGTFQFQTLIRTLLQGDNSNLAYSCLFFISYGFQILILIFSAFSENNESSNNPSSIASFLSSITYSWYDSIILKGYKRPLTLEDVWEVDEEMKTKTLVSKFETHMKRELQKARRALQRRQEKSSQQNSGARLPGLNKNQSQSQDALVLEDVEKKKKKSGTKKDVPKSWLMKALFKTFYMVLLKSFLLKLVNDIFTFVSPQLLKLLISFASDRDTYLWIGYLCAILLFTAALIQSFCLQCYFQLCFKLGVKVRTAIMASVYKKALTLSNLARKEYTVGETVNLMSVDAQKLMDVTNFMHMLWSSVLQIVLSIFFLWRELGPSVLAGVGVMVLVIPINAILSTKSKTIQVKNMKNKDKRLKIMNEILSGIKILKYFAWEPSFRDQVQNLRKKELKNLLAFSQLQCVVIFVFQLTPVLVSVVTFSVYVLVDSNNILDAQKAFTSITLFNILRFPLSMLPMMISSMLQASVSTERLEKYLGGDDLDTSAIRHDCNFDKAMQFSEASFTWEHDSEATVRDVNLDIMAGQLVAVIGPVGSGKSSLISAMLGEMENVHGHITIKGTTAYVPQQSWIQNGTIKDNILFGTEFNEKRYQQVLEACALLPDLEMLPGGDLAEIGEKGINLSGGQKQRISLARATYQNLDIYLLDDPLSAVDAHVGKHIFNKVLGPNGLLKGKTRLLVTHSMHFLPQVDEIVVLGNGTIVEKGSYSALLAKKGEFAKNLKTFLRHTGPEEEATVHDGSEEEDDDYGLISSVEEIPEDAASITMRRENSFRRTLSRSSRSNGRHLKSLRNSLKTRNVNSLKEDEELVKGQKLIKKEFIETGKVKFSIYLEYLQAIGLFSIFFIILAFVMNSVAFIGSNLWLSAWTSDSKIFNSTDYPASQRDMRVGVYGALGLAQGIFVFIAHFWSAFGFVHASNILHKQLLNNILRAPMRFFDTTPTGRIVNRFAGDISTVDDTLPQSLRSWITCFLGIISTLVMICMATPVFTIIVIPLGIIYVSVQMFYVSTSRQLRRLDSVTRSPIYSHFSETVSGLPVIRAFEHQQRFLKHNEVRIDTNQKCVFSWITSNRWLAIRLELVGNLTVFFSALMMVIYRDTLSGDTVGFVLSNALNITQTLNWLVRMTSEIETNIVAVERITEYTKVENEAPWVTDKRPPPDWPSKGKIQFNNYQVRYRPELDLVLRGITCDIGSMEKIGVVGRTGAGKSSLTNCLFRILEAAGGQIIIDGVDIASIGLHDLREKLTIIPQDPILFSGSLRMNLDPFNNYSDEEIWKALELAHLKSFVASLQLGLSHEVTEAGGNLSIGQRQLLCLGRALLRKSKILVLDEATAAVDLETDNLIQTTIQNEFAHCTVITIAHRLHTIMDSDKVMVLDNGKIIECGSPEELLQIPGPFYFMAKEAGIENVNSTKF

[5] = test system: EpiIntestinal™ tissues; assay type: cell-based, human
[6] = biological target: T2, P-gp (Homo sapiens, UniProt P08183); test: Transport with/without P-gp inhibitor verapamil in EpiIntestinal™; assay type: in vitro ADME
T2 construct: EpiIntestinal™ tissues express all the influx and efflux transporters that are considered relevant; host or cells: EpiIntestinal™ 3D reconstructed human small-intestinal epithelium (normal human primary cells, single donor)
T2 sequence (P08183 whole entry): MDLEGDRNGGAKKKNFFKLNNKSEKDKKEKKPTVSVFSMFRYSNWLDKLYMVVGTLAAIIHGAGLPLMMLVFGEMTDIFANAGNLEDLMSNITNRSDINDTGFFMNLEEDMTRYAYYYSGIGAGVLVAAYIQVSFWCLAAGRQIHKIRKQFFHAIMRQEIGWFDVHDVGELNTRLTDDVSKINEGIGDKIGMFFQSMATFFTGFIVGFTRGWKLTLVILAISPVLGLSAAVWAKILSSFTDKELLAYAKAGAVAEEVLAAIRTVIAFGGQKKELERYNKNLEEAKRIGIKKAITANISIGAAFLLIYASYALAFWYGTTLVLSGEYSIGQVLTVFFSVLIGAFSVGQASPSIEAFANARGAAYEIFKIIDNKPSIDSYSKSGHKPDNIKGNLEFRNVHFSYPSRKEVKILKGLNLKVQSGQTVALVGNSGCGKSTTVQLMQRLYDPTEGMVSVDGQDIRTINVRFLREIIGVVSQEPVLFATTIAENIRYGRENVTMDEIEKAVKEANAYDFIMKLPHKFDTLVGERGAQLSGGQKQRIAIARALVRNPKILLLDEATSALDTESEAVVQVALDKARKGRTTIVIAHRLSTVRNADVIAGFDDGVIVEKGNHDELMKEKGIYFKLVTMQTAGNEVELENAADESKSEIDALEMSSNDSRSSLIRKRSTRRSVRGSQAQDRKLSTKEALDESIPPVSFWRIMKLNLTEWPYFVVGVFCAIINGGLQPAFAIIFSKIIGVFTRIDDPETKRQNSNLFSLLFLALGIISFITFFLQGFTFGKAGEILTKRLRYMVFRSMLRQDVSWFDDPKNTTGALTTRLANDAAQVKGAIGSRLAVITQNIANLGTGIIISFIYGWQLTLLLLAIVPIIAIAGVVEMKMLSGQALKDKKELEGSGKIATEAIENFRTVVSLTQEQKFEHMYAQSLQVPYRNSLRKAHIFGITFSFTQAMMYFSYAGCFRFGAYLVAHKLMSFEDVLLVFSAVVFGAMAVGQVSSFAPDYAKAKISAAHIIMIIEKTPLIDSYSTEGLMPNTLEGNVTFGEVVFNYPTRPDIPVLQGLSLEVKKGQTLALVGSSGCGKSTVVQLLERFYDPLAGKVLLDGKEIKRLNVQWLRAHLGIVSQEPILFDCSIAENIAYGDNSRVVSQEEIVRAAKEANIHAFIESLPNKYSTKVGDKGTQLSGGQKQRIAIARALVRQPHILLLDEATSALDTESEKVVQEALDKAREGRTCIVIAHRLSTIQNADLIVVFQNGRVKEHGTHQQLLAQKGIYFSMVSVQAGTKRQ

[7] = test system: BCRP; test: in vitro; details: human, not told
[8] = biological target: T1, MRP2; details: cited from earlier work
[9] = biological target: OATP 2B1 (Homo sapiens, UniProt O94956); assay type: in vitro ADME
OATP 2B1, sequence (O94956 whole entry): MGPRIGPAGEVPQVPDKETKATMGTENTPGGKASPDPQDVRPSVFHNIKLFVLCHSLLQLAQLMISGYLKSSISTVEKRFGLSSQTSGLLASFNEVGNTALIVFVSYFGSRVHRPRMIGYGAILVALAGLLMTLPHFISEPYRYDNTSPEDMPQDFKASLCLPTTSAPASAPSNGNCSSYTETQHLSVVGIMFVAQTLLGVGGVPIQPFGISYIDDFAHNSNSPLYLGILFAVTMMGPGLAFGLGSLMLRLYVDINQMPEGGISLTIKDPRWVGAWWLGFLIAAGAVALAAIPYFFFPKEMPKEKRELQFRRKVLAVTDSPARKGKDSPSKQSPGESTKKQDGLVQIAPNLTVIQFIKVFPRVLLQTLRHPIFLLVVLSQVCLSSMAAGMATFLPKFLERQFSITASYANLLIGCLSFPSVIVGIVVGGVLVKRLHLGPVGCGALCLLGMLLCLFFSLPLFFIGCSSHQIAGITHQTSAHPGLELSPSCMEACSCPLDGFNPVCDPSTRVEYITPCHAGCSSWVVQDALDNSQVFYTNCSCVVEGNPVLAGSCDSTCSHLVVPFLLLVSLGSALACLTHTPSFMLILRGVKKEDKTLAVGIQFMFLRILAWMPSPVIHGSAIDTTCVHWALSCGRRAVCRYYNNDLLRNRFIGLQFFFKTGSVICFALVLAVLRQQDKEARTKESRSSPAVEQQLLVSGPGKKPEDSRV

| Molecule | Efflux ratio (ER), Papp BL-AP / Papp AP-BL [1] | toxin reaching the basolateral compartment [2] | absorption (parent compound detected in the BL compartment), % of the administered dose [3] | amount recovered in the BL compartment at 4 h, percentage of the applied dose [3] | dependence of Papp on the donor concentration [3] | effect of cyclosporin on MC transport [4] | toxicity, measured as barrier integrity with LY [5] | effect of co-administration of verapamil (P-gp inhibitor) on MC transport [6] | efflux ratio [7] | amount recovered in the cellular pellet, % of the administered dose [3] | transport (efflux) by MRP2 [8] | effect of pravastatin (OATP 2B1 inhibitor) on MC uptake [9] | permeability coefficient Papp (AP-BL), time course [3] | time at which toxin was detectable in the receptor fluid [3] |
| --- | --- | --- | --- | --- | --- | --- | --- | --- | --- | --- | --- | --- | --- | --- |
| C=C1C(=O)N[C@H](C)C(=O)N[C@@H](CC(C)C)C(=O)N[C@@H](C(=O)O)[C@H](C)C(=O)N[C@@H](CCCNC(=N)N)C(=O)N[C@@H](/C=C/C(C)=C/[C@H](C)[C@H](Cc2ccccc2)OC)[C@H](C)C(=O)N[C@@H](C(=O)O)CCC(=O)N1C [MC-LR, Microcystin-LR] (R[Adda][d(γGlu)][NMeDha][dA]L[dAsp(3S-Me)]-OH; lactam N-7) | 3.65 | 0.3–1.35% | around 5% | 4.6% | independent on the donor concentrations | significantly decreased the efflux | no toxicity | not affected | – | – | – | – | – | – |
| C[C@]12CC[C@H]3[C@@H](CCC4=CC(=O)CC[C@@]43C)[C@@H]1CC[C@@H]2O [testosterone, Testosterone] | – | – | – | – | – | – | – | – | 1.95 | – | – | – | – | – |
| Microcystin-LF [MC-LF] | – | – | – | – | dose dependent increase in permeability | – | no toxicity | – | – | less than 1% | transported more rapidly than MC-LR and–RR | – | – | – |
| Microcystin-LW [MC-LW] | 2.65 | – | – | – | dose dependent increase in permeability | not reaching the statistical significance | no toxicity | not affected | – | less than 1% | – | slightly decreased | – | – |
| Microcystin-RR [MC-RR] | – | – | around 5% | 3.6% | independent on the donor concentrations | – | no toxicity | – | – | – | – | – | 5.73 | 30 min |
| Microcystin-YR [MC-YR] | – | – | around 5% | 4.3% | independent on the donor concentrations | – | no toxicity | – | – | – | – | – | – | – |
